Measurements published in patent US20240299557A1, “COMPOUND FOR DEGRADING DEOXYRIBONUCLEIC ACID (DNA) POLYMERASE, AND USE THEREOF” (TAIBIDI PHARMACEUTICAL TECHNOLOGY (SHIJIAZHUANG) CO., LTD., priority 2021, published 2024).
Where a SMILES comes first, the peptide text is derived from it. The star is where a group is joined. Cbz = O=C(OCc1ccccc1)*

What was measured:
[1] = target: T1, HBV P protein (DNA polymerase) (Hepatitis B virus genotype D subtype ayw, UniProt P03156); assay: Degradation of HBV P protein (DNA polymerase) in Huh7-HBP cell line (Nano-Glo HiBiT/LgBiT luminescence); format: cell-based; details: read-out: Degradation activity of DNA polymerase at different concentrations of compounds; for inhibition at 0.1 µM: 100 nM; for inhibition at 0.3 µM: 300 nM; for inhibition at 1 µM: 1000 nM; for inhibition at 3 µM: 3000 nM; for inhibition at 10 µM: 10000 nM
T1 construct: expressed in transfected cells; host or cells: Huh7-LgBiT cells transduced with pLVX-HBP-Puro lentivirus (Huh7-HBP)
T1 sequence (P03156 whole entry): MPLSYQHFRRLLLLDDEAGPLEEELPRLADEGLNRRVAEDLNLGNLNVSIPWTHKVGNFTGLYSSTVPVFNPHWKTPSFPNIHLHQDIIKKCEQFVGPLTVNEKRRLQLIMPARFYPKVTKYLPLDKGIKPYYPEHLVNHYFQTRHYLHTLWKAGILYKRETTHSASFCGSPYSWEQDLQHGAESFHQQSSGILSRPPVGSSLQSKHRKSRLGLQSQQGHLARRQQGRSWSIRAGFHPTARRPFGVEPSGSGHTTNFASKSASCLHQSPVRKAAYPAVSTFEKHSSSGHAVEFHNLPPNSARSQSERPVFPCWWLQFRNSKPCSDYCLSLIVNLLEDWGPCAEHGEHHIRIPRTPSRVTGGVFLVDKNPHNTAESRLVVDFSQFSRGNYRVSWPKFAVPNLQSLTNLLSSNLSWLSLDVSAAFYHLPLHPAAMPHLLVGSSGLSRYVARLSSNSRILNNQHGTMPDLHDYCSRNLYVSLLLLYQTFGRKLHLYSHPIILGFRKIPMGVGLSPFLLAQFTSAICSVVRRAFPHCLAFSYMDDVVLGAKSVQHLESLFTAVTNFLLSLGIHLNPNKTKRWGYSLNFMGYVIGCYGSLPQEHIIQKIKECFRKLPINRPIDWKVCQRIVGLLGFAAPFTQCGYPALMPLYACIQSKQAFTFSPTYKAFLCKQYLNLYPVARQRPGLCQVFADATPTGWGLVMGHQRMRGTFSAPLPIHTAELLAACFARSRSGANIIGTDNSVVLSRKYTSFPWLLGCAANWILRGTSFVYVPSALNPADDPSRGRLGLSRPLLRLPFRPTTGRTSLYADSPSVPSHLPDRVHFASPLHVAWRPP
Protocol: The transfected huh-7-HBP cell line was digested and suspended, 100 μl of cell suspension was added to each well of a 96-well plate at a concentration of 2×10^5/ml, and incubated overnight. 10 μl of drug was added to each well according to the pre-set dose, and each dose of each drug should be at least two replicate wells. After shaking gently, the cell suspension was put back into the incubator, and incubated for 1-24 h according to the specific situation. Nano-Glo@ LCS Dilution Buffer and Nano-Glo@ Live Cell Substrate two reagents in the Nano-Glo@Live Cell Assay System kit were mixed at a ratio of 20:1, and added to the cell plate to be tested at a ratio of 25 ul per 100 ul system. After shaking for 30 seconds, full wavelength luminosity was measured using BMG Labtech FLUOstar Omega ELIASA. The higher the luminescence value, the higher the HBP content of the target protein.
According to method 1, the degradation effect of target compounds I-X on HBV P protein at 5 different concentrations was determined.

HBV [2] = assay: Inhibition of HBV virus replication in HepAD38 cells (HBV DNA level in supernatant); format: cell-based, hepatitis B virus; details: for inhibition at 0.01 µM / inhibition at 0.1 µM / inhibition at 1 µM / inhibition at 10 µM: Hepatitis B virus, HepAD38 cell line, read-out: Antiviral activity of the compound at different concentrations; for inhibition at 1 µM: 1000 nM; for inhibition at 10 µM: 10000 nM; for inhibition of virus replication: all tested dose levels 10 nM, P≤0.001; for inhibitory effect on virus replication: after 7 days, TPD00203 each dose group (3.75 nM, 100 nM, 5 μM, 100 μM), ETV 3.75 nM
Protocol: In vitro cell model 2: Stable toxigenic HepAD38 cells.
(§1) Positive drug control: entecavir (ETV).
(§2) Experimental procedure: HepG2.2.15 cells and stable toxigenic HepAD38 cells were divided into six experimental groups. The number of cells in each well was 7×10^4, and the amount of medium in each well was 500 μl. The first group was a blank control, the second group was a positive control, and 3.75 nM ETV was added; the third to sixth groups were added with 3.75 nM, 100 nM, 5 μM and 100 μM compound (I, TPD00203). The supernatant was collected on the 3rd day after administration and the HBV DNA level in the supernatant was detected. On the seventh day, the supernatant was collected again and the cells were pelleted, and the level of HBV DNA in the supernatant was detected.
After the preliminary evaluation of the virus-inhibiting effect of TPD00203, the inhibitory effects of the same dose of TPD00203 and ETV were determined in HepAD38 cell line. ETV and TPD00203 were 4 dose groups of 10 nM, 100 nM, 1 μM, and 10 μM.
The inhibitory activity of compounds (I-X) on the virus in HepAD38 cell line was determined by the same method as in Example 6, and the results were shown in the following table.

HBV [3] = assay: Inhibition of HBV virus replication in HepG2.2.15 cells (HBV DNA level in supernatant); format: cell-based, hepatitis B virus; details: after 7 days of administration, P≤0.001 vs blank group
Protocol: In vitro cell model 1: HepG2 cells transfected with hepatitis B virus (HBV), namely HepG2 2.2.15 cells.
as §1, §2

HBV P protein = target: T2, HBV P protein (Hepatitis B virus genotype D subtype ayw, UniProt P03156); assay: Degradation of flag-tagged HBV P protein in transfected Huh7 cells (Western Blot); format: cell-based
T2 construct: flag; expressed in transfected cells; host or cells: Huh7
T2 sequence (P03156 whole entry): as above
Protocol: In vitro cell model: Huh7.
Proteasome inhibitor: MG132
The Huh7 cells cultured in the medium containing 10 μM TPD00203 drug were used to transfect the flag-tagged P protein overexpression plasmid, and the medium containing 10 μM TPD00203 drug was changed 6 hours after transfection, and MG132 (final concentration 10 μM) was added 24 hours after transfection to inhibit the degradation of P protein, and cells were harvested after MG132 treatment for 12 hours. MG132 is a reversible proteasome inhibitor. After MG132 was removed, the cells were cultured in a medium containing 10 μM TPD00203 for 12 hours, and the cells were harvested. The expression of P protein was detected by Western Blot experiment. DMSO was used as a control.

[4] = HepAD38 cells, 7 days, 100 nM, 1 μM, 10 μM

Compound | inhibition at 0.1 µM [1] [%] | inhibition at 0.3 µM [1] [%] | inhibition at 1 µM [1] [%] | inhibition at 3 µM [1] [%] | inhibition at 10 µM [1] [%] | inhibition at 0.01 µM (HBV [2]; 10 nM) [%] | inhibition at 0.1 µM (HBV [2]; 100 nM) [%] | inhibition at 1 µM (HBV [2]) [%] | inhibition at 10 µM (HBV [2]) [%] | inhibitory effect on virus replication (HBV [3]; 3.75 nM) | inhibitory effect on virus replication (HBV [3]; 5 μM) | inhibitory effect on virus replication (HBV [3]; 100 μM) | P protein degradation (Western Blot) (HBV P protein; Huh7 cells transfected with flag-Polymerase plasmid, 10 μM TPD00203, 36 hours after transfection) | virus-inhibiting effect compared with ETV at the same dose (HBV [2]; HepAD38 cells, 7 days, 10 nM, 100 nM, 1 μM, 10 μM) | inhibition of virus replication (HBV [2]; [4]) | inhibitory effect on virus replication (HBV [2]; HepAD38 cells) | effect of proteasome inhibitor on drug-induced P protein degradation (HBV P protein; Huh7 cells, MG132 final concentration 10 μM added 24 hours after transfection, with 10 μM TPD00203)
C=C1[C@H](CNC(=O)CN2CCC(CCCC(=O)N[C@H](C(=O)N3C[C@H](O)C[C@H]3C(=O)NCc3ccc(-c4scnc4C)cc3)C(C)(C)C)CC2)[C@H](O)C[C@@H]1n1cnc2c(=O)[nH]c(N)nc21 [VIII] | < 30 | < 30 | 30 to 70 | 30 to 70 | > 70 | 30 to 60 | 30 to 60 | 30 to 60 | > 60 | – | – | – | – | – | – | – | –
C=C1[C@H](CO)[C@H](O)C[C@@H]1n1cnc2c(OCCOCCOCCCC(=O)N[C@H](C(=O)N3C[C@H](O)C[C@H]3C(=O)NCc3ccc(-c4scnc4C)cc3)C(C)(C)C)nc(N)nc21 [Compound V] | < 30 | 30 to 70 | 30 to 70 | 30 to 70 | 30 to 70 | 10 to 30 | 30 to 60 | 30 to 60 | 30 to 60 | – | – | – | – | – | – | – | –
C=C1[C@H](CNC(=O)CN2CCN(CCCC(=O)N[C@H](C(=O)N3C[C@H](O)C[C@H]3C(=O)NCc3ccc(-c4scnc4C)cc3)C(C)(C)C)CC2)[C@H](O)C[C@@H]1n1cnc2c(=O)[nH]c(N)nc21 [Compound VII] | < 30 | < 30 | < 30 | 30 to 70 | 30 to 70 | 10 to 30 | 10 to 30 | 30 to 60 | 30 to 60 | – | – | – | – | – | – | – | –
C=C1[C@H](CO)[C@H](O)C[C@@H]1n1cnc2c(OCCN3CCC(CCCC(=O)N[C@H](C(=O)N4C[C@H](O)C[C@H]4C(=O)NCc4ccc(-c5scnc5C)cc4)C(C)(C)C)CC3)nc(N)nc21 [III] | < 30 | < 30 | 30 to 70 | 30 to 70 | > 70 | > 60 | > 60 | > 60 | > 60 | – | – | – | – | – | – | – | –
C=C1[C@H](CO)[C@H](O)C[C@@H]1n1cnc2c(OCCCCCCCCCC(=O)N[C@H](C(=O)N3C[C@H](O)C[C@H]3C(=O)NCc3ccc(-c4scnc4C)cc3)C(C)(C)C)nc(N)nc21 [Compound I] | < 30 | 30 to 70 | 30 to 70 | > 70 | > 70 | > 60 | > 60 | > 60 | > 60 | significant inhibition of viral replication | significant inhibition of viral replication | significant inhibition of viral replication | promote P protein degradation | better virus-inhibiting effect than ETV | significantly inhibit virus replication | significant inhibitory effect on virus replication | –
C=C1[C@H](CNC(=O)CCCCCCCCC(=O)N[C@H](C(=O)N2C[C@H](O)C[C@H]2C(=O)NCc2ccc(-c3scnc3C)cc2)C(C)(C)C)[C@H](O)C[C@@H]1n1cnc2c(=O)[nH]c(N)nc21 [Compound VI, N1-(((1R,3S)-3-(2-amino-6-oxo-1,6-dihydro-9H-purin-9-yl)-5-hydroxy-2-methylenecyclopentyl)methyl)-N10-((S)-1-((2S,4R)-4-hydroxy-2-((4-(4-methylthiazol-5-yl)benzyl)carbamoyl)pyrrolidin-1-yl)-3,3-dimethyl-1-oxobutan-2-yl) decanoic acid diamide] | < 30 | 30 to 70 | 30 to 70 | > 70 | > 70 | 10 to 30 | 30 to 60 | > 60 | > 60 | – | – | – | – | – | – | – | –
C=C1[C@H](CO)[C@H](O)C[C@@H]1n1cnc2c(OCCN3CCN(CCCC(=O)N[C@H](C(=O)N4C[C@H](O)C[C@H]4C(=O)NCc4ccc(-c5scnc5C)cc4)C(C)(C)C)CC3)nc(N)nc21 [II] | < 30 | < 30 | < 30 | 30 to 70 | 30 to 70 | 10 to 30 | 10 to 30 | 30 to 60 | > 60 | – | – | – | – | – | – | – | –
CC(C)C[C@@H](C=O)NC(=O)[C@H](CC(C)C)NC(=O)[C@H](CC(C)C)NC(=O)OCc1ccccc1 [MG132, reference compound] (Cbz-Leu-Leu-Leu-aldehyde) | – | – | – | – | – | – | – | – | – | – | – | – | – | – | – | – | inhibited drug degradation
C=C1[C@H](CNC(=O)CN2CCC(OCCC(=O)N[C@H](C(=O)N3C[C@H](O)C[C@H]3C(=O)NCc3ccc(-c4scnc4C)cc3)C(C)(C)C)CC2)[C@H](O)C[C@@H]1n1cnc2c(=O)[nH]c(N)nc21 [IX] | – | – | – | – | – | 30 to 60 | 30 to 60 | > 60 | > 60 | – | – | – | – | – | – | – | –
C=C1[C@H](CO)[C@@H](O)C[C@@H]1n1cnc2c(=O)[nH]c(N)nc21 [entecavir, reference compound] | – | – | – | – | – | – | – | – | – | significant inhibitory effect on virus replication | – | – | – | – | significantly inhibit virus replication | significant inhibitory effect on virus replication | –
